# Test results published in patent US20070027080A1, “Method for treatment of vitiligo” (priority 2005, published 2007).
# Assays:
# [1] = test system: vitiligo patches of volunteers; experiment: Clinical trial: repigmentation of vitiligo patches, OMP of beta methasone with or without local application of the peptide; format: in vivo, human
# Excerpt: (§1) That this happens was shown in a clinical trial on human volunteers. The above twin objectives were accomplished. FIG. 2a describes two vitiligo patches at the start of treatment of oral steroids, while 2b describes the same patches at the end of 3 months of treatment with oral steroids while at the same time bFGF peptide(s) lotion was applied locally once a day on the lower vitiligo patch for the duration of intake of oral steroids. […] The arrest of the fast spread of the disease was accomplished to the same extent of 88% at the end of 6 months of treatment with oral steroids and the result was not altered by the local application of bFGF peptide(s) lotion (See table 3 for more details)
# At the end of 3 months of combinatorial treatment with steroids and local application of bFGF peptide(s) lotion more than 3 fold more patients got pigmented to a marked extent than with steroid alone (See Table 4 for more details). The percentage of volunteers who had moderate and marked rate of repigmentation with combinatorial therapy at the end of three months of treatment is twice than with the steroid therapy alone.
# fast spreading vitiligo = experiment: Clinical trial: disease activity (arrest of spread) of fast spreading vitiligo, OMP of beta methasone with or without the peptide; format: in vivo, human
# Excerpt: as §1
smiles,measurement,setting,value
"C[C@H]1C[C@H]2[C@@H]3CCC4=CC(=O)C=C[C@]4(C)[C@@]3(F)[C@@H](O)C[C@]2(C)[C@@]1(O)C(=O)CO [OMP Alone, beta methasone]","Marked repigmentation, % of volunteers",[1]; At 3 months,12.5%
same,"Marked repigmentation, number of volunteers",[1]; At 3 months,2
same,"Minimal repigmentation, % of volunteers",[1]; At 3 months,68.75%
same,"Minimal repigmentation, number of volunteers",[1]; At 3 months,11
same,"Moderate repigmentation, % of volunteers",[1]; At 3 months,18.75%
same,"Moderate repigmentation, number of volunteers",[1]; At 3 months,3
same,"Marked repigmentation, % of volunteers",[1]; At 6 months,25%
same,"Marked repigmentation, number of volunteers",[1]; At 6 months,4
same,"Minimal repigmentation, % of volunteers",[1]; At 6 months,50%
same,"Minimal repigmentation, number of volunteers",[1]; At 6 months,8
same,"Moderate repigmentation, % of volunteers",[1]; At 6 months,25%
same,"Moderate repigmentation, number of volunteers",[1]; At 6 months,4
same,No. of patients where the disease was arrested with time,fast spreading vitiligo; At 3 months,12
same,Percentage of patients where the disease was arrested,fast spreading vitiligo; At 3 months,75%
same,No. of patients where the disease was arrested with time,fast spreading vitiligo; At 6 months,14
same,Percentage of patients where the disease was arrested,fast spreading vitiligo; At 6 months,87.50%
same,Percentage of patients where the disease was arrested,"fast spreading vitiligo; At 6 months, listed as oral steroids",88%
